“And” between values parts separate entries of the source, which are not always exact repeats. Equal values may be shown once. Read-outs that look alike come from different tables or passages of the source.
What was measured:
[1] = system: Guinea Pig Intradermal Wheals; conditions: in vivo
[2] = system: Female Mice; conditions: mouse, in vivo
[3] = system: rat sciatic nerve; conditions: in vivo
[4] = in vivo; conditions: mouse
[5] = in vivo
[6] = system: tissue; conditions: in vivo
[7] = system: Cat; conditions: in vivo
[8] = system: isolated frog sciatic nerve; design: species or system Rana pipiens; conditions: for Greatest Depth of Block (% of action potential): frog, sciatic nerve
[9] = in vivo; conditions: mouse, ip
[10] = system: Sheep; conditions: in vivo
[11] = system: brain and the spinal cord; conditions: in vivo
[12] = system: Dog; conditions: in vivo
[13] = in vivo; conditions: rat, sc
[14] = system: guinea pigs; conditions: guinea pig, in vivo, sc, 646 mg/kg

SMILES | Duration of guinea pig intradermal wheals [1] | Duration [3] | Frequency [3] | Onset [3] | LD50 ([4]; ip) [mg/kg] | LD50 ([4]; iv) [mg/kg] | LD50 ([4]; sc) [mg/kg] | Local anaesthetic effect (in words) [5] | Tissue irritation (in words) [6] | Duration of Block of Support of Weight [7] | Average time for 80% recovery of action potential [8] [min] | further results
Cc1cccc(C)c1NC(=O)CNC(C)(C)C [A, 2-(tert.-butylamino)-2',6'-acetoxylidide] | 129 ± 14 min and 148 ± 20 min and 186 ± 17 min and 197 ± 14 min | 126 ± 12 and 157 ± 18 | 5/5 | 5 min | 119 | 35.4 | 141 | unusually long-lasting local anaesthetic effect | quite satisfactory | 54 ± 9 min and 104 ± 29 min | – | Intravenous toxicity (in words) ([2]; iv): unusually low intravenous toxicity
CCN(CC(=O)Nc1c(C)cccc1C)C(C)(C)CC [C, 2-(N-ethyl-tert.-amylamino)-2',6'-acetoxylidide] | 158 ± 49 min and 230 ± 32 min and 301 ± 11 min | – | – | – | 81 | 7.4 | – | unusual, long-lasting local anaesthetic effect and high local anaesthetic activity | satisfactory low level of tissue irritation | 220 ± 64 min and 298 ± 56 min | 29 | Acute toxicity (in words) [2]: satisfactory low acute toxicity; Duration of rat sciatic nerve block (days) [3]: 1 to 8 days; Greatest Depth of Block (% of action potential) ([8]; 20000 µM): 77%; Duration of anaesthesia (in words) [5]: significantly longer duration than compounds A and B; Irritation compared with bupivacaine [6]: not more irritating than bupivacaine at 0.5% concentration; Duration of Block of Support of Weight, 1 animal outside the mean [7]: > 7 h
Cc1cccc(C)c1NC(=O)C(C)NC(C)(C)C (centres unmarked) [Compound B, 2-(tert.-butylamino)-2',6'-propionoxylidide] | – | 128 ± 13 and 133 ± 7 | 5/5 | 3 min and 2 min | – | – | – | – | – | – | – | Guinea Pig Wheal Duration [1]: 139 ± 24 and 160 ± 43 and 184 ± 36; Guinea Pig Wheal Frequency [1]: 12/12; Adverse signs in rat sciatic test [3]: Depression, ataxia, loss of righting reflex in some animals; Rat Sciatic Frequency [3]: 8/10 and 10/10; LD50 [9]: 61 mg/kg
CCCN(CC(=O)Nc1c(C)cccc1C)C(C)(C)CC [Compound D, 2-(N-n-propyl-tert.-amylamino)-2',6'-acetoxylidide] | 171 ± 26 min and 227 ± 21 min and 253 ± 16 min and 303 ± 19 min | – | – | – | 39 | 6.8 | 109 | unusual, long-lasting local anaesthetic effect and high local anaesthetic activity | satisfactory low level of tissue irritation | – | 163 | Acute toxicity (in words) [2]: satisfactory low acute toxicity; Duration of block, 2 animals outside the mean [3]: 10 to 13 days; Duration of rat sciatic nerve block [3]: 217 ± 25 min and 124 ± 50 min and 157 ± 30 min; Duration of rat sciatic nerve block (days) [3]: 8 to 27 days and 13 to 30 days; Duration of block of Digital Pain [10]: 45 to 60 min; Onset time [10]: 5 to 10 min; Pathological change in brain and spinal cord [11]: no pathological change attributable to the drugs was found; Duration of block of Digital Pain [12]: 1 to 2 days; Duration, Digital Pain [12]: 289 min and 338 min; Duration, Scrotal Pain [12]: 218 min and 226 min; Recovery of the animals [12]: All animals recovered completely; Greatest Depth of Block (% of action potential) ([8]; 5000 µM): 96%; Duration of anaesthesia (in words) [5]: significantly longer duration than compounds A and B; Irritation compared with bupivacaine [6]: not more irritating than bupivacaine at 0.5% concentration
CCCCN(CC(=O)Nc1c(C)cccc1C)C(C)(C)C [Compound E, 2-(N-n-butyl-tert.-butylamino)-2',6'-acetoxylide] | – | – | – | – | – | – | – | – | – | – | – | Duration of rat sciatic nerve block, Mean ± S.D. [3]: 174 ± 26 min and 200 ± 18 min and 237 min; Frequencies and durations (in words) [3]: Frequencies and durations were good; Frequency of rat sciatic nerve block [3]: 9/10 and 10/10; Pathological change in brain and spinal cord [11]: no pathological change attributable to the drugs was found; LD50 [13]: 1070 mg/kg; Duration of block of Digital Pain [12]: 1 to 2 days; Recovery of the animals [12]: All animals recovered completely; Survival [14]: all animals survived; LD50 [9]: 284 mg/kg
CCC(C)(C)NCC(=O)Nc1c(C)cccc1C [Compound F, 2-(N-tert.-amylamino)-2',6'-acetoxylidide] | – | 97 ± 4 and 101 ± 8 | 6/6 | 3 min and 2 min | – | – | – | – | – | – | – | –
CCCCN1CCCCC1C(=O)Nc1c(C)cccc1C (centres unmarked) [X, N-n-butylpipecolyl-2,6-xylidide, reference compound] | 182 ± 4 min and 252 ± 5 min and 314 ± 10 min | – | – | – | 40 | 6.4 | 45 | – | – | – | 65 | Greatest Depth of Block (% of action potential) ([8]; 5000 µM): 64%; Toxic effects [7]: Toxic effects observed
CCN(CC)CC(=O)Nc1c(C)cccc1C [Y, diethylaminoaceto-2,6-xylide, reference compound] | 78 ± 9 min and 110 ± 13 min and 117 ± 6 min and 121 ± 12 min | – | – | – | – | – | – | – | – | 88 ± 10 min | – | –
